This assay deals with Disintegrin and metalloproteinase domain-containing protein 17 (Homo sapiens, UniProt P78536). The assay is described as follows: exosite inhibitors of ADAM17, dose response, biochemical (AID 743260).

pIC50: −log10 of the molar value.

Sequence of Disintegrin and metalloproteinase domain-containing protein 17 (P78536 whole entry, the tested form may be a part): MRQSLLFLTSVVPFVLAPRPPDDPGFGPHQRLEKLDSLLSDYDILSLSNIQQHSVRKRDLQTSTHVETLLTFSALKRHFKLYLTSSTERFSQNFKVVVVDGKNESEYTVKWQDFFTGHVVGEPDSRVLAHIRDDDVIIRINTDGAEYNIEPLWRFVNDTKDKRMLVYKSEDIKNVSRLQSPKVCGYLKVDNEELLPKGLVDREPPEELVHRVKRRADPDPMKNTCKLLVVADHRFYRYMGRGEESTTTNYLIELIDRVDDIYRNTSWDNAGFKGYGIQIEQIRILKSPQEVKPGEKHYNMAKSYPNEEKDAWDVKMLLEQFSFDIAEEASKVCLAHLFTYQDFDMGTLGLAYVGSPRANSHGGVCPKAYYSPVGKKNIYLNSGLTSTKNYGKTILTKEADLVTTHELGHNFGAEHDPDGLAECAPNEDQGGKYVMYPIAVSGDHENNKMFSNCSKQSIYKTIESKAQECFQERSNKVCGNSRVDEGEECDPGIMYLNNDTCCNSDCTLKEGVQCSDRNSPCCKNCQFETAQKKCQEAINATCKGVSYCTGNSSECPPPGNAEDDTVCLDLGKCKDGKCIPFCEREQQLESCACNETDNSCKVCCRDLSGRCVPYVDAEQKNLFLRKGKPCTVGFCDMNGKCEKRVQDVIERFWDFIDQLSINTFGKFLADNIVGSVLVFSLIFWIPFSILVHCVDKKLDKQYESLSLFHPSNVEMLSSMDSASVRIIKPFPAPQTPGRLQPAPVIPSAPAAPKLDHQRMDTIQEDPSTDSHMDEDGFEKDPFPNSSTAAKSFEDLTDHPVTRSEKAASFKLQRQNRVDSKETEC

`CC1CCCN(CCCNC(=O)c2coc3nc4ccccc4nc23)C1` (stereo not drawn) [MLS000046706] gave a pIC50 of 4.16. In the case of `Cn1c(-c2sccc2OCc2ccc(Cl)cc2Cl)n[nH]c1=S` it was 4.16; in that of `COc1ccc(NC(=O)c2oc3ccccc3c2NC(=O)C(C)(C)C)cc1` [3-(2,2-dimethylpropanoylamino)-N-(4-methoxyphenyl)-1-benzofuran-2-carboxamide], 4.16. In turn, `COC(=O)c1cccc(Cn2c(Cl)c(CN=Nc3ccccc3C)sc2=O)c1` [methyl 3-[[4-chloro-5-[[(2-methylphenyl)hydrazinylidene]methyl]-2-oxo-1,3-thiazol-3-yl]methyl]benzoate] gave a negative-log IC50 (pIC50) of 4.16.

`CC(=NNC(=N)Sc1cc(O)n(-c2ccc(Br)cc2)c1O)c1cccs1` [[1-(4-bromophenyl)-2,5-bis(oxidanylidene)pyrrolidin-3-yl] N''-(1-thiophen-2-ylethylideneamino)carbamimidothioate] showed a negative-log IC50 (pIC50) of 4.16. `CC(=NNC(=N)Sc1cc(O)n(-c2ccccc2)c1O)c1cccs1` [[2,5-bis(oxidanylidene)-1-phenyl-pyrrolidin-3-yl] N'-[(E)-1-thiophen-2-ylethylideneamino]carbamimidothioate]: the pIC50 was 4.16. In turn, `O=C1OCCN1C(=O)C1=[N+](c2ccc(Br)cc2)N[C-](c2ccccc2)[C@H]1c1ccc([N+](=O)[O-])cc1` [SMR000327268] showed a pIC50 of 4.16.

In the case of `COc1cccc(C2c3oc(CO)cc(=O)c3OC(=N)C2C#N)c1` (stereo not drawn) [2-Amino-6-hydroxymethyl-4-(3-methoxy-phenyl)-8-oxo-4,8-dihydro-pyrano[3,2-b]pyran-3-carbonitrile], the negative logarithm of the IC50 (pIC50) was 4.16. In turn, `Cc1cccc(NNC2=c3cc(Br)ccc3=NC2=O)c1` [5-bromo-3-[2-(3-methylphenyl)hydrazinyl]indol-2-one] gave a pIC50 of 4.16. Regarding `CCOc1ccc(NC(=O)Cc2sc(=O)n(-c3ccccc3)c2O)cc1`, the pIC50 is 5.24. Next, `O=C(Cc1sc(=O)n(-c2ccccc2)c1O)Nc1ccccc1` [2-(2,4-diketo-3-phenyl-thiazolidin-5-yl)-N-phenyl-acetamide]: 4.33. Next, `CCOc1cc(C(c2c(C)[nH][nH]c2=O)c2c(C)[nH][nH]c2=O)ccc1O` [4-[(3-ethoxy-4-hydroxyphenyl)-(3-methyl-5-oxo-1,2-dihydropyrazol-4-yl)methyl]-5-methyl-1,2-dihydropyrazol-3-one]: 4.16; `C=c1cc(O)c(CN(C)C)c2oc(=Cc3ccco3)c(O)c12` [(2Z)-7-[(dimethylamino)methyl]-2-(furan-2-ylmethylidene)-6-hydroxy-4-methyl-1-benzofuran-3-one]: 4.77.

Usually pIC50 stands for the IC50 on a negative log10 scale, so that one unit is a factor of ten. Low readings indicate a high IC50, high ones a low IC50.

These data come from BindingDB's records for doi:10.7270/Q21J98DJ (The Scripps Research Institute Molecular Screening Center, 2014).
